We go through 3 compounds from patent US20100240537A1, “Substituted 6-(alkylbenzylamino)purine derivatives for use as cytokinin receptor antagonists and preparations containing these derivatives” (priority 2007, published 2010).

A word on the IC50: it is the concentration at which inhibition is half-maximal. The GI50 is the concentration that inhibits growth by half. By EC50 is commonly meant the midpoint of the concentration-response curve.

Each structure is given as a SMILES string. Like-named read-outs stand apart in the source and are kept apart here.

The test system of assay [1] is Human diploid fibroblasts SNF25. The assay can be described thus: MTT viability assay on human diploid fibroblasts. The assay is classed as cell-based. The following applies: Homo sapiens, Fibroblast; SNF25 passage 19, 72 hours; read-out: IC50 (reduction in mitochondrial activity, MTT). The procedure: MTT is a standard colorimetric assay for measurement of proliferation and survival of the cells. Yellow MTT is reduced into violet formazan in metabolically active cells. The amount of formazan is measured by spectrometry. Human diploid fibroblasts SNF25 (passage 19) were seeded in 96-well plate (5000 cells per well). After 6 hours, the cultivation medium (DMEM containing 5 g/l glucose, 2 mM glutamin, 100 U/ml penicillin, 100 μg/ml streptomycin and 10% fetal calf serum) was removed and fresh medium containing a test compound in concentration range of 0-100 μM was added. The concentration was adjusted in cases of compounds with limited solubility. Each concentration was tested in 5 replicates. MTT was added to the cells after 72 hours into final concentration of 0.5 mg/ml. Incubation time was 3 hours. Resulting MTT was disolved in DMSO and absorbance was measured. The cytotoxic effect was estimated as IC=(Awells with compounds/Acontrol wells)×100%.

The subject of assay [2] is erytroid leukemia cell line K-562. Description: Calcein AM cytotoxicity assay, K-562. Type of assay: cell-based, human. To be noted: Homo sapiens, K562, 72 hours. From the text: (§1) Absence of toxic effects against mammalian (especially human) cell lines in a wide concentration range is one of the requirements on compounds intended for use in agriculture. Because toxic compounds negatively influence metabolic processes in cells, many standard cytotoxicity assays are based on measurement of metabolisation rate of various artificial substrates. Resulting product is then quantified e.g. by means of spectrometry. The assays can be easily modified for use in 96-well plates. For evaluation of cytotoxic effect of the novel substituted 6-(alkylbenzylamino)purine derivatives of this invention, a microtiter assay based on quantification of metabolisation of Calcein AM was used. The assay is widely used in drug screening programs and in chemosensitivity testing. In live cells, Calcein AM is enzymatically hydrolysed and accumulation of resulting calcein is manifested by green fluorescence.
(§2) The cells were maintained in Nunc/Corning 80 cm^2 plastic tissue culture flasks and cultured in cell culture medium (DMEM with 5 g/l glucose, 2 mM glutamine, 100 U/ml penicillin, 100 μg/ml streptomycin, 10% fetal calf serum and sodium bicarbonate).
(§3) The cell suspensions were prepared and diluted according to the particular cell type and the expected target cell density (10^4 cells per well based on cell growth characteristics) and pippetted (80 μl) into 96-well plates. Inoculates were allowed a pre-incubation period of 24 hours at 37° C., 100% humidity and 5% CO2 for stabilisation. Tested compounds were added in total volume of 20 μl of water at time zero. Usually, test compound was evaluated at six 3-fold dilutions. In routine testing, the highest concentration tested was 100 μM, the eventual changes depended on physico-chemical characteristics of the respective compound. All drug concentrations were tested in triplicates. Incubations of cells with the test compounds lasted for 72 hours at 37° C., in 5% CO2 atmosphere and 100% humidity. At the end of incubation period Calcein AM (Molecular Probes) in PBS was added into final concentration of 1 μg/ml. After another 1 hour of incubation fluorescence (FD) was measured with the Labsystem FIA Reader Fluoroscan Ascent (UK). Growth inhibition (GI) was estimated using the following equitation: GI=(mean FDdrug exposed wells−mean FDblank)/(mean FDcontrol wells−mean FDblank)×100%.

Assay [3] concerns the target T1, AHK3 (Arabidopsis thaliana, UniProt Q9C5U1).
T1 construct: expressed in transfected cells; host or cells: Escherichia coli KMI001, plasmid pSTV28-AHK3
T1 sequence (Q9C5U1 1-1036): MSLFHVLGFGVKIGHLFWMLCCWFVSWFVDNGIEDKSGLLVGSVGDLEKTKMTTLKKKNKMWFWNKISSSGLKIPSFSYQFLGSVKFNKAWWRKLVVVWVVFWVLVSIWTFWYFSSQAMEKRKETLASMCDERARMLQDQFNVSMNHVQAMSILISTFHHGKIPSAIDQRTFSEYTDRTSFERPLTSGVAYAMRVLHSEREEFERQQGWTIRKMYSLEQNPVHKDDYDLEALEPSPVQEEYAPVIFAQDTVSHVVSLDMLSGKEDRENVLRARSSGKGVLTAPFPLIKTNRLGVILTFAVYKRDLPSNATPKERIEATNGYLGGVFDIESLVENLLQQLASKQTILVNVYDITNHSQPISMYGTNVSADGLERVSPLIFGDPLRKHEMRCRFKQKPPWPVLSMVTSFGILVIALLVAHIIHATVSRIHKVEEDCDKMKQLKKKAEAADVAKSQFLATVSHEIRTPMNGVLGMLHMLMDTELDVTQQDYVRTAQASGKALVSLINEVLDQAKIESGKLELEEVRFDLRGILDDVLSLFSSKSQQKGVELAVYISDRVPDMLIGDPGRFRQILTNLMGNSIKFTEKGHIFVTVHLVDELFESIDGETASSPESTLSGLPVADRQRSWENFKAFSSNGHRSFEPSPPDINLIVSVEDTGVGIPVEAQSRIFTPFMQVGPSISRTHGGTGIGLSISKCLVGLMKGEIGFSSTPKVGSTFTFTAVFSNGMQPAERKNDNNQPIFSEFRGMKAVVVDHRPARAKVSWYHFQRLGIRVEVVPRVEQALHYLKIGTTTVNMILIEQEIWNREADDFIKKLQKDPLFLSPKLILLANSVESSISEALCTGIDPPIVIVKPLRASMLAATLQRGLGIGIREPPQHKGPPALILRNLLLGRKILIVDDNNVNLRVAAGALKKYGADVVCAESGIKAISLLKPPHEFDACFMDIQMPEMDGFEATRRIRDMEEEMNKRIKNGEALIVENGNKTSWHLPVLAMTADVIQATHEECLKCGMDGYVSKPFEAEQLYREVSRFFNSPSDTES
Description: Activation of cytokinin receptor AHK3 in E. coli KMI001 (β-galactosidase reporter). The assay is classed as cell-based. As for the experimental part:
Escherichia coli strains KMI001 harbouring the plasmid pIN-III-AHK4 or pSTV28-AHK3 were grown overnight at 25° C. in M9 media enriched with 0.1% casamino acids to OD600˜1. The preculture was diluted 1:600 in 1 ml M9 medium containing 0.1% casamino acids and 1 μl stock solution of either the tested compound (10^−7 M−5×10^−5 M) or solvent control (DMSO, ethanol, methanol) were added. The cultures were further grown at 25° C. in microtiter plate, 200 μl per well. […] The cultures were centrifuged and 50 μl aliquots of the supernatant were transferred to microtiter plate containing 2 μl 50 mM 4-methyl umbelliferyl galactoside which was subsequently incubated for 1 h at 37° C. The reaction was stopped by adding 100 μl 0.2 M Na2CO3. Fluorescence was measured using a Fluoroscan Ascent (Labsystems, Finland) at the excitation and emission wavelengths of 365 and 460 nm, respectively. The OD600 of remaining culture was determined and β-galactosidase activity was calculated as nmol 4-methylumbelliferone×OD600^−1×h^−1.
The EC50 value, the compound concentration activating the receptor to 50%, was calculated from the obtained dose response curves. The compound functioning as cytokinin antagonists should not activate cytokinin signalling pathway. The values shown in Table 2 are means of three replicates and the entire test was repeated at least twice.

The subject of assay [4] is osteosarcoma cell line HOS. The assay can be described thus: Calcein AM cytotoxicity assay, HOS. The following applies: Homo sapiens, 72 hours. Type of assay: cell-based, human.
Excerpt: as §1, §2, §3

[5] abbreviates: E. coli KMI001 pSTV28-AHK3, 28 h incubation, n.i. means without interaction, read-out: EC50 AHK3 (activation of cytokinin receptor).

On to `c1ccc(CNc2ncnc3nc[nH]c23)cc1` [6-(benzylamino)purine], for which, in assay [1], the IC50 is more than 100 µM. Further, the concentration for 50% growth inhibition (GI50) in assay [2] and in assay [4] was more than 100 µM each time. Also, the EC50 in assay [3] is 18.2 µM.

On to `Cc1cccc(CNc2ncnc3nc[nH]c23)c1O` [Compound 8, 6-(2-hydroxy-3-methylbenzylamino)purine], for which the IC50 in assay [1] was more than 50 µM. In addition, the 50% growth inhibitory concentration (GI50) in assay [2] and in assay [4] was more than 50 µM each time. Also, the EC50 in assay [3] (setting [5]) was more than 100 µM.

In the case of `Cc1ccc(O)c(CNc2ncnc3nc[nH]c23)c1` [Compound 10, 6-(2-hydroxy-5-methylbenzylamino)purine], in assay [1], the IC50 was more than 100 µM. The GI50 in assay [2] and in assay [4] was more than 100 µM in each case. Moreover, the EC50 in assay [3] (setting [5]) is more than 100 µM.
